Assay results published in PubChem BioAssay AID1845203 (Molecular Pharmacology Branch, DTP, NCI, 2023).

Test system: G-401 tumor spheroids, viability % test/control
Test: Anticancer human tumor G-401 cell line growth inhibition;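 further: spheroids exposed to compound for 7 days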;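 on viability, T/C: 100% = DMSO vehicle-treated spheroids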
Conditions: spheroids with HUVEC and MSC; for IC50: curve of first compound; for viability, T/C: stronger effect = lower value
In short: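 Complex tumor spheroids combined malignant cells with endothelial cells and mesenchymal stem cells. DNA-damaging drugs and DNA repair inhibitors were tested alone and in combination, at half-log dilutions down from clinical Cmax (top 10 microM if Cmax unknown), 0.25% DMSO final.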

CNCc1ccc(-c2cc(-c3nc(-c4ccc(S(=O)(=O)C(C)C)cc4)cnc3N)on2)cc1 + CC[C@@]1(O)C(=O)OCc2c1cc1n(c2=O)Cc2cc3c(CN(C)C)c(O)ccc3nc2-1
IC50 (second compound 0.003 µM): 326 nM
IC50 (second compound 0.00949 µM): < 9.49 nM
IC50 (second compound 0.03 µM): < 9.49 nM
IC50 (second compound 0.0949 µM): < 9.49 nM
IC50 (second compound 0.3 µM): < 9.49 nM
viability, T/C (second compound 0.003 µM, first compound 0.00949 µM): 82.9%
viability, T/C (second compound 0.003 µM, first compound 0.03 µM): 88%
viability, T/C (second compound 0.003 µM, first compound 0.0949 µM): 81.7%
viability, T/C (second compound 0.003 µM, first compound 0.3 µM): 50.5%
viability, T/C (second compound 0.003 µM, first compound 0.949 µM): 30.2%
viability, T/C (second compound 0.003 µM, first compound 3 µM): 21.1%
viability, T/C (second compound 0.00949 µM, first compound 0.00949 µM): 43.9%
viability, T/C (second compound 0.00949 µM, first compound 0.03 µM): 51.2%
viability, T/C (second compound 0.00949 µM, first compound 0.0949 µM): 39.5%
viability, T/C (second compound 0.00949 µM, first compound 0.3 µM): 21.5%
viability, T/C (second compound 0.00949 µM, first compound 0.949 µM): 16.5%
viability, T/C (second compound 0.00949 µM, first compound 3 µM): 17.1%
viability, T/C (second compound 0.03 µM, first compound 0.00949 µM): 21%
viability, T/C (second compound 0.03 µM, first compound 0.03 µM): 15.8%
viability, T/C (second compound 0.03 µM, first compound 0.0949 µM): 17.9%
viability, T/C (second compound 0.03 µM, first compound 0.3 µM): 19.5%
viability, T/C (second compound 0.03 µM, first compound 0.949 µM): 20.8%
viability, T/C (second compound 0.03 µM, first compound 3 µM): 18.1%
viability, T/C (second compound 0.0949 µM, first compound 0.00949 µM): 8.75%
viability, T/C (second compound 0.0949 µM, first compound 0.03 µM): 8.82%
viability, T/C (second compound 0.0949 µM, first compound 0.0949 µM): 12.4%
viability, T/C (second compound 0.0949 µM, first compound 0.3 µM): 16.4%
viability, T/C (second compound 0.0949 µM, first compound 0.949 µM): 16.9%
viability, T/C (second compound 0.0949 µM, first compound 3 µM): 13.3%
viability, T/C (second compound 0.3 µM, first compound 0.00949 µM): 4.81%
viability, T/C (second compound 0.3 µM, first compound 0.03 µM): 6.19%
viability, T/C (second compound 0.3 µM, first compound 0.0949 µM): 7.23%
viability, T/C (second compound 0.3 µM, first compound 0.3 µM): 9.53%
viability, T/C (second compound 0.3 µM, first compound 0.949 µM): 9.78%
viability, T/C (second compound 0.3 µM, first compound 3 µM): 4.97%

Cn1ncnc1[C@H]1c2n[nH]c(=O)c3cc(F)cc(c23)N[C@@H]1c1ccc(F)cc1 + Cn1nnc2c(C(N)=O)ncn2c1=O
IC50 (second compound 1 µM): 156 nM
IC50 (second compound 3.16 µM): 57.5 nM
IC50 (second compound 10 µM): 22.2 nM
IC50 (second compound 31.6 µM): < 9.49 nM
IC50 (second compound 100 µM): < 9.49 nM
viability, T/C (second compound 1 µM, first compound 0.00949 µM): 81.7%
viability, T/C (second compound 1 µM, first compound 0.03 µM): 73.9%
viability, T/C (second compound 1 µM, first compound 0.0949 µM): 57.2%
viability, T/C (second compound 1 µM, first compound 0.3 µM): 39.6%
viability, T/C (second compound 1 µM, first compound 0.949 µM): 23.3%
viability, T/C (second compound 1 µM, first compound 3 µM): 12.6%
viability, T/C (second compound 3.16 µM, first compound 0.00949 µM): 87.8%
viability, T/C (second compound 3.16 µM, first compound 0.03 µM): 54.6%
viability, T/C (second compound 3.16 µM, first compound 0.0949 µM): 45.3%
viability, T/C (second compound 3.16 µM, first compound 0.3 µM): 30.5%
viability, T/C (second compound 3.16 µM, first compound 0.949 µM): 23.4%
viability, T/C (second compound 3.16 µM, first compound 3 µM): 13.2%
viability, T/C (second compound 10 µM, first compound 0.00949 µM): 63%
viability, T/C (second compound 10 µM, first compound 0.03 µM): 44.9%
viability, T/C (second compound 10 µM, first compound 0.0949 µM): 32.4%
viability, T/C (second compound 10 µM, first compound 0.3 µM): 23.3%
viability, T/C (second compound 10 µM, first compound 0.949 µM): 15.7%
viability, T/C (second compound 10 µM, first compound 3 µM): 10.4%
viability, T/C (second compound 31.6 µM, first compound 0.00949 µM): 35.6%
viability, T/C (second compound 31.6 µM, first compound 0.03 µM): 21.3%
viability, T/C (second compound 31.6 µM, first compound 0.0949 µM): 16.4%
viability, T/C (second compound 31.6 µM, first compound 0.3 µM): 13.9%
viability, T/C (second compound 31.6 µM, first compound 0.949 µM): 10.4%
viability, T/C (second compound 31.6 µM, first compound 3 µM): 9.51%
viability, T/C (second compound 100 µM, first compound 0.00949 µM): 14.1%
viability, T/C (second compound 100 µM, first compound 0.03 µM): 11.6%
viability, T/C (second compound 100 µM, first compound 0.0949 µM): 10.8%
viability, T/C (second compound 100 µM, first compound 0.3 µM): 10.3%
viability, T/C (second compound 100 µM, first compound 0.949 µM): 8.87%
viability, T/C (second compound 100 µM, first compound 3 µM): 6.62%
